Measured values reported in ChEMBL document CHEMBL2095176, “GSK Tuberculosis Screening Data”.
≈ marks a conversion by molar mass, not a printed value.

The compounds below were run on Mycobacterium tuberculosis variant bovis BCG (assay: microbe, parasite or virus in culture).
Assay type: functional

Compound | MIC90 [µM]
COc1cc2c(cc1OC)C(c1ccccc1)N(C(=O)c1nn(C)c(=O)c3ccccc13)CC2 (stereo not drawn) | 6.3 (≈ 2.87 µg/mL)
Cn1c(SCC(=O)Nc2sccc2C#N)nnc1-c1ccc(Cl)cc1 | 2.4 (≈ 0.936 µg/mL)
O=C(NNC(=O)c1cccs1)c1ccc(Oc2ccccc2)cc1 | 4.4 (≈ 1.49 µg/mL)
c1ccc(-c2nnc(Sc3ccnc(N4CCN(c5ccncc5)CC4)n3)n2CCCN2CCOCC2)cc1 | 6.3 (≈ 3.43 µg/mL)
COc1ccc2cnnc(SCC(=O)NNC(=O)c3cccs3)c2c1OC | 3 (≈ 1.21 µg/mL)
O=C1N(C2CCCCC2)CCS1(=O)=O | 3.1 (≈ 0.674 µg/mL)
Nc1cccnc1Nc1ccc(C(F)(F)F)cc1 | 3.7 (≈ 0.937 µg/mL)
Nc1ccccc1NC1CCN(Cc2ccccc2)CC1 | 3.6 (≈ 1.01 µg/mL)
CCOc1ccc(-c2nnc(NC(=O)c3cnc(Cl)c(Cl)c3)o2)cc1 | 9.6 (≈ 3.64 µg/mL)
CCCCOc1ccc(C(=O)Nc2nnc(-c3ccccc3)o2)cc1 | 3.1 (≈ 1.05 µg/mL)
Cc1cc(=O)[nH]c(-n2nc(C)cc2NC(=O)COc2ccccc2C)n1 | 6.9 (≈ 2.44 µg/mL)
O=C(CSc1nnc(Nc2ccccc2)s1)NNC(=O)c1cccs1 | 8.2 (≈ 3.21 µg/mL)
CSc1cccc(-c2nnc(NC(=O)c3ccc4c(c3)CCCC4)o2)c1 | 7.2 (≈ 2.63 µg/mL)
Cc1cc(=O)[nH]c(-n2nc(C)cc2NC(=O)C2(c3ccc(Cl)cc3)CCCC2)n1 | 1.3 (≈ 0.535 µg/mL)
CC(=O)Nc1cc(C(=O)Nc2ccc(C3=NCCN3)cc2)ccc1C(=O)Nc1ccc(C2=NCCN2)cc1 | 1.6 (≈ 0.815 µg/mL)
O=C(NCc1cc(Cl)cc(Cl)c1)c1c(C(F)(F)F)nc2ccccn12 | 1.3 (≈ 0.505 µg/mL)
O=C(CC1NC(=O)c2ccccc21)Nc1cccc(-c2cc(-c3c(Cl)cccc3Cl)no2)c1 (stereo not drawn) | 5 (≈ 2.39 µg/mL)
Cc1nc(SCC(=O)Nc2sccc2C#N)n(Cc2ccc(Cl)cc2)c1C | 8.1 (≈ 3.38 µg/mL)
C=Cn1cccc1C(=O)N1CCCC(n2cnc3sc(C)c(CC)c3c2=O)C1 (stereo not drawn) | 7.3 (≈ 2.89 µg/mL)
Br.CC1(C)N=C(N)N=C(N)N1OCCc1ccc2ccccc2c1 | 8.8
CSc1cccc(-c2nnc(NC(=O)c3ccc(Cl)s3)o2)c1 | 9.6 (≈ 3.38 µg/mL)
CC(C)(C)OC(=O)n1cc(CN2CCC3(CC2)OCCc2sccc23)c2ccccc21 | 9.5 (≈ 4.17 µg/mL)
Cc1ccc(-c2nnc(NC(=O)c3ccc(Cl)s3)o2)c(C)c1 | 4 (≈ 1.34 µg/mL)
O=C(Cn1c(SCc2ccccc2F)nc2ccncc21)Nc1ccc(Br)cc1F | 8.3 (≈ 4.06 µg/mL)
Nc1ccc(C(=O)C(=O)c2ccc(N)cc2)cc1 | 0.4 (≈ 0.0961 µg/mL)
Cc1cc(OCC(=O)NCc2ccccc2)c2cc(Br)ccc2n1 | 4.6 (≈ 1.77 µg/mL)
Cc1cccc(C)c1CNc1c(C(N)=O)cnc2c(C)cccc12 | 5.9 (≈ 1.88 µg/mL)

Compound | MIC90 [µM]
Cc1ccc(Cl)c2sc(N(CCN(C)C)C(=O)c3cccc(S(C)(=O)=O)c3)nc12 | 4.2 (≈ 1.9 µg/mL)
Cc1cc(NC(=O)c2cccs2)n(-c2nc(C)c(C)c(=O)[nH]2)n1 | 1.8 (≈ 0.593 µg/mL)
CCCn1nnnc1NC(=O)c1ccc(Cl)c(Cl)c1 | 7.9 (≈ 2.37 µg/mL)
COCCNc1nc(N2CCCC2)c2c(c1C#N)CCN(C)C2 | 0.8 (≈ 0.252 µg/mL)
Cc1ccc(C(=O)Nc2nnc(-c3ccccc3Cl)o2)cc1 | 6.1 (≈ 1.91 µg/mL)
Cc1ccc(C)c2nc(N3CCN(C)CC3)c(C#N)cc12 | 9.4 (≈ 2.64 µg/mL)
CCC1=NN(C(=O)c2ccncc2)C(O)(c2ccncc2)C1 (stereo not drawn) | 6.9 (≈ 2.04 µg/mL)
O=C(/C=C/c1ccccc1C(F)(F)F)Nc1ccc2c(c1)C1CCCN1CC2 (stereo not drawn) | 7.3 (≈ 2.82 µg/mL)
COc1ccc(NC(=O)c2ccc(CN3CCCCC3)o2)c(OC)c1 | 7.2 (≈ 2.48 µg/mL)
N=c1n(CCC2CCCCC2)nnn1Cc1ccccc1 | 6.1 (≈ 1.74 µg/mL)
O=C(Nc1nnc(-c2ccc(Cl)s2)o1)c1ccc(S(=O)(=O)N2CCCCC2)cc1 | 7.3 (≈ 3.31 µg/mL)
CC(C)C(NC(=O)CCc1nc2ccccc2oc1=O)c1nc2ccccc2[nH]1 (stereo not drawn) | 4.4 (≈ 1.72 µg/mL)
O=C(Nc1cccc(C(=O)N2CCCC2c2nc3ccccc3s2)c1)c1cccs1 (stereo not drawn) | 6.9 (≈ 2.99 µg/mL)
COc1ccccc1OCCCCn1c(C2CC2)nc2ccccc21 | 3 (≈ 1.01 µg/mL)
COc1ccc(-c2nnc3sc(Cc4ccccc4)nn23)cc1 | 2.7 (≈ 0.87 µg/mL)
CCCCOc1ccc(C(=O)Nc2nc(-c3ccccn3)cs2)cc1OCC | 3.6 (≈ 1.43 µg/mL)
CN(C)c1nc2scc(-c3ccccc3)c2c(=O)o1 | 1.5 (≈ 0.408 µg/mL)
Fc1cccc(-c2nc(NCC3COc4ccccc4O3)no2)c1F (stereo not drawn) | 9.2 (≈ 3.18 µg/mL)
CCCc1cc(=O)[nH]c(-n2nc(C)cc2NC(=O)c2cc3ccccc3o2)n1 | 1.4 (≈ 0.528 µg/mL)
CN1CCN(c2cc(-c3ccc(F)cc3)nc(-c3ccncc3)n2)CC1 | 7.9 (≈ 2.76 µg/mL)
Cc1cc(N)nc2cc(-c3ccc(CCN)cc3)ccc12 | 9.5 (≈ 2.64 µg/mL)
C[C@@H]1CN(c2ncnc3c2nc(C2CC2)n3C2CCNC2)C[C@H](C)O1 (stereo partly drawn) | 7.5 (≈ 2.57 µg/mL)
FC(F)(F)c1cc(SCc2ccccc2)nc(-c2ccccn2)n1 | 7.1 (≈ 2.47 µg/mL)
Cc1ccc2nc(C(F)(F)F)c(C(=O)NCc3ncc(C(F)(F)F)cc3Cl)n2c1 | 9.9 (≈ 4.32 µg/mL)
COCc1nc(N2CCNCC2)c2c(C)nn(-c3ccc(C)cc3)c2n1 | 3 (≈ 1.06 µg/mL)
C=CCNCCS(=O)(=O)c1cccc(Nc2ccc(-c3ccc(OC)nc3)cn2)c1 | 1.3 (≈ 0.552 µg/mL)
